Source: patent publication US20080039438A1, “1B-Methylcarbapenem Derivative and Process for the Preparation Thereof” (Korea Institute of Science and Technology, priority 2004, published 2008)
Values after ≈ are worked out from the molar mass of the structure shown. Where two headings read alike, the source gives them in different places.

What was measured:
[1] = system: Streptococcus pyogenes 77A; assay: MIC against standard strains (agar dilution); format: cell-based; conditions: standard strain Streptococcus pyogenes 77A, 37° C., 18 to 20 hours, read-out: Minimum Inhibitory Concentration (MIC)
[2] = system: Staphylococcus aureus SG511; assay: MIC against standard strains (agar dilution); format: cell-based; conditions: standard strain Staphylococcus aureus SG511, 37° C., 18 to 20 hours, read-out: Minimum Inhibitory Concentration (MIC)
[3] = system: Staphylococcus aureus 285; assay: MIC against standard strains (agar dilution); format: cell-based; conditions: standard strain Staphylococcus aureus 285, 37° C., 18 to 20 hours, read-out: Minimum Inhibitory Concentration (MIC)
Escherichia coli 078 = assay: MIC against standard strains (agar dilution); format: cell-based; conditions: standard strain Escherichia coli 078, 37° C., 18 to 20 hours, read-out: Minimum Inhibitory Concentration (MIC)
Escherichia coli DC 0 = assay: MIC against standard strains (agar dilution); format: cell-based; conditions: DC0, standard strain Escherichia coli DC 0, 37° C., 18 to 20 hours, read-out: Minimum Inhibitory Concentration (MIC)
[4] = system: Pseudomonas aeruginosa 9027; assay: MIC against standard strains (agar dilution); format: cell-based; conditions: standard strain Pseudomonas aeruginosa 9027, 37° C., 18 to 20 hours, read-out: Minimum Inhibitory Concentration (MIC)
[5] = system: Klebsiella aerogenes 1522E; assay: MIC against standard strains (agar dilution); format: cell-based; conditions: standard strain Klebsiella aerogenes 1522E, 37° C., 18 to 20 hours, read-out: Minimum Inhibitory Concentration (MIC)
[6] = system: Enterobacter cloacae 1321E; assay: MIC against standard strains (agar dilution); format: cell-based; conditions: standard strain Enterobacter cloacae 1321E, 37° C., 18 to 20 hours, read-out: Minimum Inhibitory Concentration (MIC)
[7] = system: Methicillin-sensitive Staphylococcus aureus; assay: MIC against clinically isolated aerobic Gram-positive strains; format: cell-based; conditions: 33 strains
Enterococcus faecalis = assay: as above; format: cell-based; conditions: 30 strains
Enterococcus faecium = assay: as above; format: cell-based
Moraxella catarrhalis = assay: MIC against clinically isolated aerobic Gram-negative strains; format: cell-based; conditions: 24 strains
Haemophilus influenzae = assay: as above; format: cell-based; conditions: 24 strains
Escherichia coli = assay: as above; format: cell-based; conditions: 30 strains
Klebsiella oxytoca = assay: as above; format: cell-based; conditions: 15 strains
Morganella morganii = assay: as above; format: cell-based; conditions: 15 strains
Acinetobacter baumannii = assay: as above; format: cell-based; conditions: 30 strains
Pseudomonas aeruginosa = assay: as above; format: cell-based; conditions: 60 strains
Peptostreptococcus spp. = assay: MIC against clinically isolated anaerobic Gram-positive strains; format: cell-based; conditions: 27 strains
Clostridium perfringens = assay: microbe, parasite or virus in culture; format: cell-based; conditions: for MIC50 / MIC90: Clostridium perfringens
[8] = Pharmacokinetics test in rats; format: in vivo, Sprague-Dawley rats
Method: (§1) The pharmacokinetic behavior of the sodium 3-carboxylate compound of Example was determined as follows. Male Sprague-Dawley rats (weighing 250 g, 14-15 weeks old, 5 rats/group) and Beagle dogs (weighing 10 kg, 3 dogs/group) were maintained by feeding conventional hard food at identical conditions for more than 7 days. The test animals were fasted except water for more than 24 hours before tested. […] 500 μl of each blood sample was centrifuged at 12,000 rpm for 30 seconds, the supernatant was filtered through a 0.22 μm filter, and analyzed by HPLC/UV, and the result was listed in Table 7.

[9] = Pharmacokinetics test in dogs; format: in vivo, Beagle dogs; conditions: dog, intravenous, 5 mg/kg
Method: as §1

DHP-I = molecular target: T1, DHP-I (Sus scrofa, UniProt P22412); format: in vitro ADME, porcine; conditions: pig, 50 μg/ml, pH 7
T1 construct: DHP-I used in the experiment was isolated from the kidney cortex of a porcine; from tissue; host or cells: porcine kidney cortex
T1 sequence (P22412 17-384): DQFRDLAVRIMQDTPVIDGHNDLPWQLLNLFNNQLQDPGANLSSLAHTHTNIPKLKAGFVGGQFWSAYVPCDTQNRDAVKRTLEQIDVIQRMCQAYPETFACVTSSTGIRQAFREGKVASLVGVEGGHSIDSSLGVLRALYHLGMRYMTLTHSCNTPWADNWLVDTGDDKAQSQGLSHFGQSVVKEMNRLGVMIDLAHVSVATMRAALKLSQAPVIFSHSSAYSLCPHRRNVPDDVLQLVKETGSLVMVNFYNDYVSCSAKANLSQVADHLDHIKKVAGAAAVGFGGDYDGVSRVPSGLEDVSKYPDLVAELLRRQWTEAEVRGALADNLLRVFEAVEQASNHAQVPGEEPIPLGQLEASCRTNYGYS
Method: To investigate the stability of sodium 3-carboxylate compound of formula (I) prepared in Example to DHP-I secreted in the kidney, the following experiment was performed.
DHP-I used in the experiment was isolated from the kidney cortex of a porcine. The enzyme quantity at which the concentration of imipenem was reduced by one half by hydrolysis at 30° C. for 30 minutes was defined as one unit. 50 μg/ml of a test drug and a unit of DHP-I were added to 1 ml of MOPS buffer (pH 7.0), the mixture was maintained at 30° C. and OD values at 299 nm were measured after 0.5, 1, 2, 4 hours.

[10] = Beagle, supernatant of centrifuged blood
[11] = male, Sprague-Dawley, supernatant of centrifuged blood, rat, intravenous, 20 mg/kg

C[C@@H](O)[C@H]1C(=O)N2C(C(=O)O)=C(S[C@@H]3CN[C@H](C(=O)N(C)C)C3)[C@H](C)[C@H]12 [MPM, meropenem]
MIC [1]: 0.007 µg/mL (≈ 0.0183 µM) | MIC [2]: 0.098 µg/mL (≈ 0.256 µM) | MIC [3]: 0.195 µg/mL (≈ 0.509 µM) | MIC (Escherichia coli 078): 0.025 µg/mL (≈ 0.0652 µM) | MIC (Escherichia coli DC 0): 0.025 µg/mL (≈ 0.0652 µM) | MIC [4]: 0.195 µg/mL (≈ 0.509 µM) | MIC [5]: 0.049 µg/mL (≈ 0.128 µM) | MIC [6]: 0.025 µg/mL (≈ 0.0652 µM) | MIC50 [7]: 0.12 µg/mL (≈ 0.313 µM) | MIC90 [7]: 0.12 µg/mL (≈ 0.313 µM) | MIC Range [7]: 0.06 to 0.25 µg/mL | MIC50 (Enterococcus faecalis): 4 µg/mL (≈ 10.4 µM) | MIC90 (Enterococcus faecalis): 16 µg/mL (≈ 41.7 µM) | MIC Range (Enterococcus faecalis): 2 to 16 µg/mL | MIC50 (Enterococcus faecium; Enterococcus faecium): 128 µg/mL (≈ 334 µM) | MIC90 (Enterococcus faecium; Enterococcus faecium): 128 µg/mL (≈ 334 µM) | MIC50 (Moraxella catarrhalis): 0.008 µg/mL (≈ 0.0209 µM) | MIC90 (Moraxella catarrhalis): 0.008 µg/mL (≈ 0.0209 µM) | MIC Range (Moraxella catarrhalis): 0.008 to 0.03 µg/mL | MIC50 (Haemophilus influenzae): 0.25 µg/mL (≈ 0.652 µM) | MIC90 (Haemophilus influenzae): 1 µg/mL (≈ 2.61 µM) | MIC Range (Haemophilus influenzae): 0.06 to 1 µg/mL | MIC50 (Escherichia coli): 0.015 µg/mL (≈ 0.0391 µM) | MIC90 (Escherichia coli): 0.03 µg/mL (≈ 0.0782 µM) | MIC Range (Escherichia coli): 0.008 to 0.5 µg/mL | MIC50 (Klebsiella oxytoca): 0.03 µg/mL (≈ 0.0782 µM) | MIC90 (Klebsiella oxytoca): 0.03 µg/mL (≈ 0.0782 µM) | MIC Range (Klebsiella oxytoca): 0.015 to 0.06 µg/mL | MIC50 (Morganella morganii): 0.06 µg/mL (≈ 0.156 µM) | MIC90 (Morganella morganii): 0.12 µg/mL (≈ 0.313 µM) | MIC Range (Morganella morganii): 0.03 to 0.12 µg/mL | MIC50 (Acinetobacter baumannii): 1 µg/mL (≈ 2.61 µM) | MIC90 (Acinetobacter baumannii): 8 µg/mL (≈ 20.9 µM) | MIC Range (Acinetobacter baumannii): 0.25 to 64 µg/mL | MIC50 (Pseudomonas aeruginosa): 2 µg/mL (≈ 5.22 µM) | MIC90 (Pseudomonas aeruginosa): 16 µg/mL (≈ 41.7 µM) | MIC50 (Peptostreptococcus spp.): 0.06 µg/mL (≈ 0.156 µM) | MIC90 (Peptostreptococcus spp.): 4 µg/mL (≈ 10.4 µM) | MIC Range (Peptostreptococcus spp.): 0.06 to 4 µg/mL | MIC50 (Clostridium perfringens): < 0.06 µg/mL | MIC90 (Clostridium perfringens): < 0.06 µg/mL | MIC Range (Clostridium perfringens; clinically isolated anaerobic Clostridium perfringens, 13 strains): <0.06 µg/mL | AUC ([8]; rat, intravenous, 20 mg/kg): 383 ± 36 µg·min/mL | CL ([8]; rat, intravenous, 20 mg/kg): 54.2 ± 5.3 mL/min/kg | T1/2 ([8]; rat, intravenous, 20 mg/kg): 4.0 ± 0.2 min | AUC [9, 10]: 11600 ng·h/mL | T1/2 [9]: 33 min

C[C@@H](O)[C@H]1C(=O)N2C(C(=O)O)=C(S[C@@H]3CN[C@H](/C=C/c4cc(C(=O)O)no4)C3)[C@H](C)[C@H]12 [Example, (1R,5S,6S,8R,3′S,5′S)-2-{5′-[(E)-2-(3-carboxylic acid or sodium carboxylate-5-isoxazolo)ethenyl]pyrrolidin-3′-ylthio}-6-(1-hydroxyethyl)-1-methylcarbapen-2-em-3-carboxylic acid]
MIC [1]: 0.049 µg/mL | MIC [2]: 0.098 µg/mL | MIC [3]: 0.195 µg/mL | MIC (Escherichia coli 078): 0.025 µg/mL | MIC (Escherichia coli DC 0): 0.025 µg/mL | MIC [4]: 0.098 µg/mL | MIC [5]: 0.049 µg/mL | MIC [6]: 0.025 µg/mL | MIC50 [7]: 0.12 µg/mL | MIC90 [7]: 0.12 µg/mL | MIC Range [7]: 0.06 to 0.12 µg/mL | MIC50 (Enterococcus faecalis): 8 µg/mL | MIC90 (Enterococcus faecalis): 32 µg/mL | MIC Range (Enterococcus faecalis): 4 to 32 µg/mL | MIC Range (Enterococcus faecium; clinically isolated Enterococcus faecium, 29 strains): 16 to 128 µg/mL | MIC50 (Enterococcus faecium; clinically isolated Enterococcus faecium, 29 strains, read-out: MIC50): 128 µg/mL | MIC90 (Enterococcus faecium; clinically isolated Enterococcus faecium, 29 strains, read-out: MIC90): 128 µg/mL | MIC50 (Moraxella catarrhalis): 0.03 µg/mL | MIC90 (Moraxella catarrhalis): 0.06 µg/mL | MIC Range (Moraxella catarrhalis): 0.015 to 0.06 µg/mL | MIC50 (Haemophilus influenzae): 0.25 µg/mL | MIC90 (Haemophilus influenzae): 4 µg/mL | MIC Range (Haemophilus influenzae): 0.25 to 8 µg/mL | MIC50 (Escherichia coli): 0.03 µg/mL | MIC90 (Escherichia coli): 0.25 µg/mL | MIC Range (Escherichia coli): 0.008 to 2 µg/mL | MIC50 (Klebsiella oxytoca): 0.03 µg/mL | MIC90 (Klebsiella oxytoca): 0.03 µg/mL | MIC Range (Klebsiella oxytoca): 0.015 to 0.25 µg/mL | MIC50 (Morganella morganii): 0.03 µg/mL | MIC90 (Morganella morganii): 0.06 µg/mL | MIC Range (Morganella morganii): 0.03 to 0.12 µg/mL | MIC50 (Acinetobacter baumannii): 8 µg/mL | MIC90 (Acinetobacter baumannii): 64 µg/mL | MIC Range (Acinetobacter baumannii): 2 to 128 µg/mL | MIC50 (Pseudomonas aeruginosa): 4 µg/mL | MIC90 (Pseudomonas aeruginosa): 64 µg/mL | MIC Range (Pseudomonas aeruginosa): 0.06 to 128 µg/mL | MIC50 (Peptostreptococcus spp.): 0.12 µg/mL | MIC90 (Peptostreptococcus spp.): 4 µg/mL | MIC Range (Peptostreptococcus spp.): 0.06 to 4 µg/mL | MIC50 (Clostridium perfringens): 0.06 µg/mL | MIC90 (Clostridium perfringens): 0.12 µg/mL | higher stability to DHP-I than imipenem (DHP-I): about 25 fold | higher bioavailability than meropenem ([8]; in rats, versus meropenem): about 4 fold | longer half-life than meropenem ([8]; in rats, versus meropenem): about 3 fold | clearance [8, 11]: 13.3 ± 1.5 mL/min/kg | half-life [8, 11]: 12.4 ± 4.1 min | AUC ([8]; male, Sprague-Dawley, supernatant of centrifuged blood, rat, intravenous, 20 mg/kg, read-out: AUC (converted)): 1520 µg·min/mL | AUC [9, 10]: 14400 ng·h/mL | half-life [9, 10]: 41 min
